Experimental data as given in patent publication US20230203098A1, “HUMAN TRANSFERRIN RECEPTOR BINDING PEPTIDE” (priority 2020, published 2023).
Like-named read-outs stand apart in the source and are kept apart here. Values belong to the compound of their own block, whether it stands above or below them. Where a SMILES comes first, the peptide text is derived from it. Bridges are numbered along the chain shown (N, C = ends). [ ]: non-standard residue; d: D form. The star is where a group is joined. X2 = O=C(O)c1cc(C(=O)*)ccc1-c1c2ccc(=O)cc-2oc2cc(O)ccc12; PEG12 = NCCOCCOCCOCCOCCOCCOCCOCCOCCOCCOCCOCCOCCC(=O)O; NMePhe(3-Cl) = CN[C@@H](Cc1cccc(Cl)c1)C(=O)O; NMeW = CN[C@@H](Cc1c[nH]c2ccccc12)C(=O)O; NMeY = CN[C@@H](Cc1ccc(O)cc1)C(=O)O; PEG4 = NCCOCCOCCOCCOCCC(=O)O; Abu = CC[C@H](N)C(=O)O

Target: transferrin receptor (hTfR) (Homo sapiens, UniProt P02786)
Experiment: Intermolecular interaction evaluation test between transferrin receptor (hTfR) and peptide by surface plasmon resonance (SPR)
Assay type: binding
Description: For each of the various synthesized peptides, the intermolecular interaction of the peptide with the transferrin receptor (hTfR) was tested by surface plasmon resonance (SPR) according to the following method. The specific test method is as follows.
An NTA sensor chip (Global Life Sciences Technologies Japan) was inserted in a Biacore T200 (Global Life Sciences Technologies Japan) and a prime operation was performed 3 times with a running buffer: 10 mM HEPES pH 8.0 (Nacalai Tesque), 150 mM NaCl (Nacalai Tesque), 0.05% Tween 20 (Nacalai Tesque), 0.1% BSA (Sigma-Aldrich), 1.0% DMSO (FUJIFILM Wako Pure Chemical) to create an Equilibration state at a flow rate of 30 µL/min. After reacting with 350 mM EDTA solution for 60 seconds at a flow rate of 10 µL/min then reacting with 0.5 mM NiCl2 solution (Kishida Chemical) for 60 seconds at a flow rate of 10 µL/min, the NTA sensor chip was washed with 3 mM EDTA solution (Nacalai Tesque) for 60 seconds at a flow rate of 10 µL/min. After mixing 50 µL each of 60 mM EDC solution (Global Life Sciences Technologies Japan) and 650 mM NHS solution (Global Life Sciences Technologies Japan), the mixture was reacted for 420 seconds at a flow rate of 10 µL/min. By diluting with the running buffer, 150 µL of 3.2 µM hTfR solution was prepared and used for reaction for 600 seconds at a flow rate of 10 µL/min, thereby immobilizing hTfR on the NTA sensor chip. After immobilization, capping was performed by reacting with 1.0 M ethanolamine aqueous solution (Global Life Sciences Technologies Japan) for 420 seconds at a flow rate of 10 µL/min. A peptide dissolution liquid prepared to 10 mM in the DMSO solution was diluted with the running buffer to a final concentration of 10 µM so as to become the peptide dissolution liquid, then peptide solutions of 100 nM, 50 nM, 25 nM, 10 nM and 5 nM were prepared. Kinetics of the peptide to hTfR was acquired by SPR measurement using the above-mentioned samples. Single-cycle kinetics was used as a kinetic evaluation model and curve fitting was performed using Biacore T200 Evaluation Software Version 3.0 (Global Life Sciences Technologies Japan). An obtained sensorgram was subjected to curve fitting using the least-squares method, and the binding of the peptide to hTfR was evaluated by obtaining KD values. […] A chemical structure of hTfR No. 894 is as follows.
The variant peptides were synthesized according to Example 1 unless otherwise stated in Example 9 or 10. The linker-added peptides were synthesized according to Example 1, except that Fmoc-NH-SAL-PEG resin (Watanabe Chemical Industries) was used as a resin for the peptide synthesis when the linker was PEG. The peptide, to which a peptide, a fatty acid, PEG, or a conjugate thereof is added as a linker, was also synthesized according to Example 1, unless otherwise stated in Example 9 or 10.

[1] = SPR, peptides, linker-added peptides and FITC conjugates, Patent ID 203-230, read-out: KD
[2] = surface plasmon resonance, hTfR, read-out: KD value for hTfR by SPR (class symbol)
[3] = binding to hTfR by SPR, Table 2 peptides, read-out: KD value (SPR) class

Chain of transferrin receptor (hTfR) (P02786 whole entry): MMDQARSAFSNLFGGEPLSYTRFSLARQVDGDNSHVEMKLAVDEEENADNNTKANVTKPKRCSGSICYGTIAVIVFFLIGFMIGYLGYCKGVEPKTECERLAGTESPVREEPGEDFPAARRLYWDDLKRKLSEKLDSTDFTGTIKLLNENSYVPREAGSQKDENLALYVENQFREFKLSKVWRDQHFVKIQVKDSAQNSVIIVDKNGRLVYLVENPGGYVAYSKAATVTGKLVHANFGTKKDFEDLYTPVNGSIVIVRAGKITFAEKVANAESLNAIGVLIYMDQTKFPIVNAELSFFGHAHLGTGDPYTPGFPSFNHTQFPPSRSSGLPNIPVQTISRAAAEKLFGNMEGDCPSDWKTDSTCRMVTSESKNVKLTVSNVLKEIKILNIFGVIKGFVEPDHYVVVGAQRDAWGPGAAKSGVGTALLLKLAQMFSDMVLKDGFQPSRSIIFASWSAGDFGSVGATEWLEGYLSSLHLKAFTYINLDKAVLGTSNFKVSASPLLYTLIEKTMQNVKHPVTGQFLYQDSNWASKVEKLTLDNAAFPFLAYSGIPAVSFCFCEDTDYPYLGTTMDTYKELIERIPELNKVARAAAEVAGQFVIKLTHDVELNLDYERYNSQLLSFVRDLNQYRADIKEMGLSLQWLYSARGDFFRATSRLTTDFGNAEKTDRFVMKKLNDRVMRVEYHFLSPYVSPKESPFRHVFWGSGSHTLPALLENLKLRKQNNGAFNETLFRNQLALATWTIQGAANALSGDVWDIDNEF

Structure (SMILES): CC[C@H](C)[C@@H]1NC(=O)[C@H](Cc2ccc(OC)cc2)NC(=O)[C@H](Cc2ccc(O)cc2)NC(=O)[C@H](CC(N)=O)NC(=O)[C@H](Cc2c[nH]c3ccccc23)N(C)C(=O)[C@H](C(C)C)NC(=O)[C@H](Cc2cccc(Cl)c2)N(C)C(=O)[C@H](C(C)C)NC(=O)[C@H](C)NC(=O)CSC[C@@H](C(=O)NCC(=O)N[C@@H](CCCCN=[N+]=[N-])C(N)=O)NC(=O)[C@H](Cc2ccc(O)cc2)N(C)C(=O)[C@H](Cc2ccccc2)NC(=O)[C@@H](CCCNC(=N)N)NC(=O)[C@H](CCCNC(=N)N)NC(=O)[C@H](CCC(=O)O)NC1=O [compound 340]
Kd (surface plasmon resonance, peptide vs hTfR, read-out: KD value, hTfR binding by SPR (class symbol)): 1 to 100 nM

Structure (SMILES): CC[C@H](C)[C@@H]1NC(=O)[C@H](Cc2ccc(OC)cc2)NC(=O)[C@H](Cc2ccc(O)cc2)NC(=O)[C@H](CC(N)=O)NC(=O)[C@H](Cc2c[nH]c3ccccc23)N(C)C(=O)[C@H](C(C)C)NC(=O)[C@H](Cc2cccc(Cl)c2)N(C)C(=O)[C@H](C(C)C)NC(=O)[C@H](C)NC(=O)CSC[C@@H](C(N)=O)NC(=O)[C@H](Cc2ccc(O)cc2)N(C)C(=O)[C@H](Cc2ccccc2)NC(=O)[C@@H](C)NC(=O)[C@H](CCCNC(=N)N)N(C)C(=O)[C@H]([C@@H](C)CC)NC1=O [compound 383]
Kd [2]: 100 to 1000 nM

Structure (SMILES): CC[C@H](C)[C@@H]1NC(=O)[C@H](Cc2ccc(OC)cc2)NC(=O)[C@H](Cc2ccc(O)cc2)NC(=O)[C@H](CC(N)=O)NC(=O)[C@H](Cc2c[nH]c3ccccc23)N(C)C(=O)[C@H](C(C)C)NC(=O)[C@H](Cc2cccc(Cl)c2)N(C)C(=O)[C@H](C(C)C)NC(=O)[C@H](C)N(C)C(=O)CSC[C@@H](C(N)=O)NC(=O)[C@H](Cc2ccc(O)cc2)N(C)C(=O)[C@H](Cc2ccccc2)NC(=O)[C@@H](C)NC(=O)[C@H](CCCNC(=N)N)NC(=O)[C@H]([C@@H](C)CC)NC1=O [compound 216]
Kd [1]: > 1000 nM

Structure (SMILES): CC[C@@H]1NC(=O)[C@H](C)NC(=O)CSC[C@@H](C(=O)NCCOCCOCCOCCOCCC(N)=O)NC(=O)[C@H](Cc2ccc(O)cc2)N(C)C(=O)[C@H](Cc2ccccc2)NC(=O)[C@@H](CCCNC(=N)N)NC(=O)[C@H](CCCNC(=N)N)NC(=O)[C@H]([C@@H](C)CC)NC(=O)[C@H]([C@@H](C)CC)NC(=O)[C@H](Cc2ccc(OC)cc2)NC(=O)[C@H](Cc2ccc(O)cc2)NC(=O)[C@H](CC(N)=O)NC(=O)[C@H](Cc2c[nH]c3ccccc23)N(C)C(=O)[C@H](C(C)C)NC(=O)[C@H](Cc2cccc(Cl)c2)N(C)C1=O [compound 243] ({CH2CO}-A[Abu][NMePhe(3-Cl)]V[NMeW]NYY(Me)IIR[dR]F[NMeY]C[PEG4]-NH2; thioether N-15)
Kd [3]: 1 to 100 nM

Structure (SMILES): CC[C@H](C)[C@@H]1NC(=O)[C@H](Cc2ccc(OC)cc2)NC(=O)[C@H](Cc2ccc(O)cc2)NC(=O)[C@H](CC(N)=O)NC(=O)[C@H](Cc2c[nH]c3ccccc23)N(C)C(=O)[C@H](C(C)C)NC(=O)[C@H](Cc2cccc(Cl)c2)N(C)C(=O)[C@H](CCC(=O)O)NC(=O)[C@H](C)NC(=O)CSC[C@@H](C(=O)NCC(=O)NCC(=O)NCC(=O)NCC(=O)N[C@@H](CO)C(=O)N[C@@H](CO)C(=O)N[C@@H](CS)C(N)=O)NC(=O)[C@H](Cc2ccc(O)cc2)N(C)C(=O)[C@H](Cc2ccccc2)NC(=O)[C@@H](CCCNC(=N)N)NC(=O)[C@H](CCCCN)NC(=O)[C@H]([C@@H](C)CC)NC1=O [compound 229]
Kd [1]: 1 to 100 nM

Structure (SMILES): CC[C@H](C)[C@@H]1NC(=O)[C@H](Cc2ccc(OC)cc2)NC(=O)[C@H](Cc2ccc(O)cc2)NC(=O)[C@H](CC(N)=O)NC(=O)[C@H](Cc2c[nH]c3ccccc23)N(C)C(=O)[C@H](C(C)C)NC(=O)[C@H](Cc2cccc(Cl)c2)N(C)C(=O)[C@H](CCC(=O)O)NC(=O)[C@H](C)NC(=O)CSC[C@@H](C(N)=O)NC(=O)[C@H](Cc2ccc(O)cc2)N(C)C(=O)[C@H](Cc2ccccc2)NC(=O)[C@H](CCCCN)NC(=O)[C@H](C)NC(=O)[C@H]([C@@H](C)CC)NC1=O [compound 225] ({CH2CO}-AE[NMePhe(3-Cl)]V[NMeW]NYY(Me)IIAKF[NMeY]C-NH2; thioether N-15)
Kd [1]: 1 to 100 nM

Next, values leading:

Kd (SPR, hTfR No. 894 variants with PEG12c linker (Table 2), read-out: KD): 100 to 1000 nM
Structure (SMILES): CC[C@H](C)[C@@H]1NC(=O)[C@H](Cc2ccc(O)cc2)NC(=O)[C@H](Cc2ccc(O)cc2)NC(=O)[C@H](CC(N)=O)NC(=O)[C@H](Cc2c[nH]c3ccccc23)NC(=O)[C@H](C(C)C)NC(=O)[C@H](Cc2ccccc2)N(C)C(=O)[C@H](C(C)C)NC(=O)[C@H](C)NC(=O)CSC[C@@H](C(=O)NCCOCCOCCOCCOCCOCCOCCOCCOCCOCCOCCOCCOCCC(N)=O)NC(=O)[C@H](CCC(=O)O)NC(=O)[C@H](Cc2ccc(O)cc2)NC(=O)[C@H](CCCNC(=N)N)NC(=O)[C@H](CCCNC(=N)N)NC(=O)[C@H]([C@@H](C)CC)NC1=O [compound 124]

Kd [1]: 1 to 100 nM
Structure (SMILES): CC[C@H](C)[C@@H]1NC(=O)[C@H](Cc2ccc(O)cc2)NC(=O)[C@H](Cc2ccc(O)cc2)NC(=O)[C@H](CC(N)=O)NC(=O)[C@H](Cc2c[nH]c3ccccc23)NC(=O)[C@H](C(C)C)NC(=O)[C@H](Cc2ccccc2)NC(=O)[C@H](C(C)C)NC(=O)[C@H](C)NC(=O)CSC[C@@H](C(=O)NCCOCCOCCOCCOCCOCCOCCOCCOCCOCCOCCOCCOCCC(=O)N[C@@H](CCCCNC(=O)c2ccc(-c3c4ccc(=O)cc-4oc4cc(O)ccc34)c(C(=O)O)c2)C(N)=O)NC(=O)[C@H](Cc2c[nH]c3ccccc23)N(C)C(=O)[C@H](CCCNC(=N)N)NC(=O)[C@@H]2CCCN2C(=O)[C@H](C(C)C)NC1=O [compound 210] ({CH2CO}-AVFVWNYYIVPR[NMeW]C[PEG12]K(X2)-NH2; thioether N-14)

Kd [2]: 1 to 100 nM
Structure (SMILES): CC[C@@H]1NC(=O)[C@H]([C@@H](C)CC)NC(=O)[C@H]([C@@H](C)CC)NC(=O)[C@H](Cc2ccc(OC)cc2)NC(=O)[C@H](Cc2ccc(O)cc2)NC(=O)[C@H](CC(N)=O)NC(=O)[C@H](Cc2c[nH]c3ccccc23)N(C)C(=O)[C@H](C(C)C)NC(=O)[C@H](Cc2cccc(Cl)c2)N(C)C(=O)[C@H](C(C)C)NC(=O)[C@H](C)NC(=O)CSC[C@@H](C(=O)NCCOCCOCCOCCOCCC(N)=O)NC(=O)[C@H](Cc2ccc(O)cc2)N(C)C(=O)[C@H](Cc2ccccc2)NC(=O)[C@@H](CCCNC(=N)N)NC1=O [compound 359] ({CH2CO}-AV[NMePhe(3-Cl)]V[NMeW]NYY(Me)II[Abu][dR]F[NMeY]C[PEG4]-NH2; thioether N-15)

Kd [2]: < 1 nM
Structure (SMILES): CC[C@H](C)[C@@H]1NC(=O)[C@H](Cc2ccc(OC)cc2)NC(=O)[C@H](Cc2ccc(O)cc2)NC(=O)[C@H](CC(N)=O)NC(=O)[C@H](Cc2c[nH]c3ccccc23)N(C)C(=O)[C@H](C(C)C)NC(=O)[C@H](Cc2cccc(Cl)c2)N(C)C(=O)[C@H](C(C)C)NC(=O)[C@H](C)NC(=O)CSC[C@@H](C(N)=O)NC(=O)[C@H](Cc2ccc(O)cc2)N(C)C(=O)[C@H](CCC(=O)NCCOCCOCCOCCOCCOCCOCCOCCOC)NC(=O)[C@@H](CCCNC(=N)N)NC(=O)[C@H](CCCNC(=N)N)NC(=O)[C@H]([C@@H](C)CC)NC1=O [compound 389]

Kd [3]: 1 to 100 nM
Structure (SMILES): CC[C@H](C)[C@@H]1NC(=O)[C@H](Cc2ccc(O)cc2)NC(=O)[C@H](Cc2ccc(O)cc2)NC(=O)[C@H](CC(N)=O)NC(=O)[C@H](Cc2c[nH]c3ccc(Cl)cc23)NC(=O)[C@H](C(C)C)NC(=O)[C@H](Cc2ccccc2)N(C)C(=O)[C@H](C(C)C)NC(=O)[C@H](C)NC(=O)CSC[C@@H](C(N)=O)NC(=O)[C@H](Cc2ccc(O)cc2)N(C)C(=O)[C@H](Cc2ccc(O)cc2)NC(=O)[C@H](CCCNC(=N)N)NC(=O)[C@H](CCCNC(=N)N)NC(=O)[C@H]([C@@H](C)CC)NC1=O [compound 268]
